Values joined by “and” are separate entries in the source; they are usually repeats but may differ in a detail not shown here. Equal values may be shown once.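 Interpolation was linear, between the two tested concentrations surrounding the appropriate level; five concentrations were tested over 48 hours in 96-well plates. The concentration for 50% growth inhibition is given as GI50. At the TGI there is no net growth.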
Columns and labels:
Experiment in all cases: NCI tumour cell line growth inhibition, 48 h
[1] = test system: ACHN renal
[2] = test system: BT-549 breast
[3] = test system: COLO 205 colon
[4] = test system: DU-145 prostate
[5] = test system: HCC-2998 colon
[6] = test system: HCT-15 colon
[7] = test system: HS 578T breast
[8] = test system: K-562 leukemia
[9] = test system: MALME-3M melanoma
[10] = test system: NCI-H23 lung
[11] = test system: PC-3 prostate
[12] = test system: SK-MEL-5 melanoma
[13] = test system: UACC-62 melanoma

| SMILES | TGI [1] | TGI [2] | TGI [3] | TGI [4] | TGI [5] | TGI [6] | TGI [7] | TGI [8] | TGI [9] | TGI [10] | TGI [11] | TGI [12] | TGI [13] | GI50 [3] | GI50 [5] | GI50 [9] | GI50 [10] | GI50 [12] | GI50 [13] |
| --- | --- | --- | --- | --- | --- | --- | --- | --- | --- | --- | --- | --- | --- | --- | --- | --- | --- | --- | --- |
| Clc1cc(Cl)c2cc3cccc[n+]3cc2c1Cl | 31.7 µM | 23.3 µM | 28.1 µM | 34 µM | 36.6 µM | 36.1 µM | 38.7 µM | 45.4 µM | 53.7 µM | 30.4 µM | 29.2 µM | 30.5 µM | 32.7 µM | – | – | – | – | – | – |
| CCN(CC)CC[n+]1ccc2c(C)c3[nH]c4ccc(O)cc4c3c(C)c2c1 | 16.5 µM | 34.3 µM | 17.4 µM and 31 µM | 14.2 µM | 22.6 µM and 85.4 µM | 143 µM | 15.8 µM | 42.5 µM and 40.2 µM | 19.3 µM and 22.3 µM | 25.1 µM and 22.5 µM | 31.8 µM | 12.6 µM and 27.1 µM | 23.1 µM and 48.9 µM | 2.6 µM | 6.94 µM | 3.91 µM | 2.45 µM | 4.5 µM | 5.41 µM |
| CNC1Cc2c[nH]c3cccc(c23)C12C=C(C)C(=O)O2 (stereo not given) | > 100 µM | > 100 µM | > 100 µM | > 100 µM | > 100 µM | > 100 µM | > 100 µM | > 100 µM | > 100 µM | > 100 µM | > 100 µM | > 100 µM | > 100 µM | – | – | – | – | – | – |

Source: PubChem BioAssay (NCI)
